In patent US8624036B2, “2-aryl-propionic acids and derivatives and pharmaceutical compositions containing them” (Dompe S.p.A., priority 2008, dated 2014):
Marks after values point to notes of the source that are not given here.

Legend:
[1] = system: GRO-α induced chemotaxis of PMNs; assay: GRO-α (CXCL1) induced chemotaxis of human PMNs; format: cell-based; conditions: compound at 10^−8 M; for inhibition at 0.01 µM: Homo sapiens
Experimental: (§1) The compounds of the invention of formula (I) were evaluated in vitro for their ability to inhibit chemotaxis of polymorphonucleate leukocytes (hereinafter referred to as PMNs) and monocytes induced by the fractions of CXCL8 and GRO-α. For this purpose, in order to isolate the PMNs from heparinized human blood, taken from healthy adult volunteers, mononucleates were removed by means of sedimentation on dextran (W. J. Ming et al., J. Immunol., 138, 1469, 1987). The cell vitality was calculated by exclusion with Trypan blue, whilst the ratio of the circulating polymorphonucleates was estimated on the cytocentrifugate after staining with Diff Quick.
GRO-α induced chemotaxis inhibition was evaluated in an analogous assay.
(§2) In the chemotaxis experiments, the PMNs were incubated with the compounds of the invention of formula (I) for 15′ at 37° C. in an atmosphere containing 5% CO2. During the chemotaxis assay (W. Falket et al., J. Immunol. Methods, 33, 239, 1980) PVP-free filters with a porosity of 5 μm and microchambers suitable for replication were used.
(§3) The compounds of the invention in formula (I) were evaluated at a concentration ranging between 10^−6 and 10^−10 M; for this purpose they were added, at the same concentration, both to the lower pores and the upper pores of the microchamber. Evaluation of the ability of the compounds of the invention of formula (I) to inhibit the chemotaxis of human monocytes was carried out according to a disclosed method (J. Van Damme et al., Eur. J. Immunol., 19, 2367, 1989).

[2] = system: CXCL8 induced chemotaxis of PMNs; assay: CXCL8 induced chemotaxis of human PMNs; format: cell-based; conditions: CXCL8 10^−9 M; for inhibition at 0.001 µM / inhibition at 0.01 µM: Homo sapiens; for inhibition at 0.001 µM / CXCL8 (% inhibition at 10^−9 M): compound at 10^−9 M; for inhibition at 0.01 µM: read-out: CXCL8 (% inhibition), tested at 10^−8 M
Experimental: as §1
In the CXCL8 induced chemotaxis assay human recombinant CXCL8 (Pepro Tech) was used as stimulating agent in the chemotaxis experiments: the lyophilized protein was dissolved in a volume of HBSS containing 0.2% bovin serum albumin (BSA) in order to obtain a stock solution having a concentration of 10^−5 M to be diluted in HBSS to a concentration of 10^−9 M, for the chemotaxis assays.
as §2, §3

[3] = system: transient cerebral ischemia induced by occlusion of the middle cerebral artery; assay: Transient cerebral ischemia by middle cerebral artery (MCA) occlusion in rats; format: in vivo; conditions: short-term effect (24 hours)
Experimental: The compounds of the present invention are particularly useful in the prevention and treatment of damages caused by ischemia/reperfusion, specifically in the protection from the functional injury induced by temporary cerebral middle cerebral artery (MCA) occlusion. Specifically, compound 3a was evaluated in terms of efficacy in a model of transient cerebral ischemia induced in rats by occlusion of the middle cerebral artery (MCA). The short-term effect (24 hours) of 3a on cerebral myeloperoxidase (MPO) activity, a marker of PMN infiltration, brain damage and neurological deficits, was investigated.

[4] = compound at 10^−8 M (footnote *)

Compound	inhibition at 0.01 µM [1] [%]	inhibition at 0.001 µM [2] [%]	also measured
C[C@H](C(=O)NO)c1ccc(Nc2nc(C(F)(F)F)cs2)cc1 [Compound 10, (2S)—N-Hydroxy-2-(4-{[4-(trifluoromethyl)-1,3-thiazol-2-yl]amino}phenyl) propanamide]	47 ± 12	51 ± 10	–
C[C@H](C(N)=O)c1ccc(Nc2nc(C(C)(C)C)cs2)cc1 [Compound 15, (2S)-2-{4-[(4-tert-Butyl-1,3-thiazol-2-yl)amino]phenyl}propanamide]	45 ± 10	48 ± 8	–
C[C@H](C(N)=O)c1ccc(N(C)c2nc(C(F)(F)F)cs2)cc1 [Compound 14, (2S)-2-(4-{Methyl[4-(trifluoromethyl)-1,3-thiazol-2-yl]amino}phenyl)propanamide]	34 ± 13	45 ± 14	–
C[C@H](C(=O)N[C@H](C)C(=O)O)c1ccc(Nc2nc(C(F)(F)F)cs2)cc1 [Compound 16, (2R)-2-{[(2S)-2-(4-{[4-(Trifluoromethyl)-1,3-thiazol-2-yl]amino}phenyl)propanoyl]amino}propanoic acid]	30 ± 15	42 ± 7	–
C[C@H](C(=O)NS(C)(=O)=O)c1ccc(Nc2nc(C(F)(F)F)co2)cc1 [Compound 21, (2S)—N-(Methylsulfonyl)-2-(4-{[4-(trifluoromethyl)-1,3-oxazol-2-yl]amino}phenyl) propanamide]	–	–	CXCL1 (% inhibition at 10^−8 M) [1]: 37 ± 2%; CXCL8 (% inhibition at 10^−9 M) [2]: 43 ± 6%
CC(C(=O)O)c1ccc(Nc2nc(C(F)(F)F)cs2)cc1 (stereo not drawn) [Compound 1, 2-(4-{[4-(Trifluoromethyl)-1,3-thiazol-2-yl]amino}phenyl)propanoic acid]	40 ± 6	–	inhibition at 0.01 µM [2, 4]: 43 ± 7%
CC(C(=O)O)c1ccc(Nc2nc(C(C)(C)C)cs2)cc1 (stereo not drawn) [Compound 6, 2-{4-[(4-tert-Butyl-1,3-thiazol-2-yl)amino]phenyl}propanoic acid]	36 ± 10	–	inhibition at 0.01 µM [2, 4]: 55 ± 10%
CC(C(=O)O)c1ccc(N(C)c2nc(C(F)(F)F)cs2)cc1 (stereo not drawn) [Compound 8, 2-(4-{Methyl[4-(trifluoromethyl)-1,3-thiazol-2-yl]amino}phenyl)propanoic acid]	39 ± 10	–	inhibition at 0.01 µM [2, 4]: 45 ± 5%
C[C@H](C(=O)NS(C)(=O)=O)c1ccc(Nc2nc(C(F)(F)F)cs2)cc1 [Compound 11, (2S)—N-(Methylsulfonyl)-2-(4-{[4-(trifluoromethyl)-1,3-thiazol-2yl]amino}phenyl) propanamide]	39 ± 7	54 ± 16	–
CC(C(=O)O)c1ccc(Nc2nc(C(F)(F)F)co2)cc1 (stereo not drawn) [Compound 18, 2-{4-[(4-Trifluoromethyl)-oxazol-2-yl]amino}phenyl propionic]	60 ± 9	–	inhibition at 0.01 µM [2, 4]: 47 ± 12%
C[C@H](C(N)=O)c1ccc(N(C)c2nc(C(F)(F)F)co2)cc1 [Compound 23, (2S)-2-(4-{Methyl-[4-(trifluoromethyl)-1,3-oxazol-2-yl]amino}phenyl)propanamide]	39 ± 2	45 ± 13	–
Cc1csc(Nc2ccc([C@H](C)C(=O)O)cc2)n1 [Compound 5, (2S)-2-{4-[(4-Methyl-1,3-thiazol-2-yl)amino]phenyl}propanoic acid]	38 ± 10	40 ± 11	–
C[C@H](NC(=O)[C@@H](C)c1ccc(Nc2nc(C(F)(F)F)co2)cc1)C(=O)O [Compound 24, (2S)-2-{[(2S)-2-(4-{[4-(Trifluoromethyl)-1,3-oxazol-2-yl]amino}phenyl)propanoyl]amino}propanoic acid]	34 ± 8	–	inhibition at 0.01 µM [2, 4]: 54 ± 12%
C[C@H](C(=O)[O-])c1ccc(Nc2nc(C(F)(F)F)cs2)cc1.[Na+] [Compound 3a, Sodium (2S)-2-(4-{[4-(trifluoromethyl)-1,3-thiazol-2-yl]amino}phenyl)propanoate]	–	–	CXCL1 (% inhibition at 10^−8 M) [1]: 55 ± 8%; CXCL8 (% inhibition at 10^−9 M) [2]: 64 ± 9%; PMN infiltrate (cerebral myeloperoxidase (MPO) activity) [3]: efficacious in reducing PMN infiltrate; infarct size (brain damage) [3]: efficacious in reducing; neurological functions (neurological deficits) [3]: improving significantly neurological functions
C[C@H](C(N)=O)c1ccc(Nc2nc(C(F)(F)F)co2)cc1 [Compound 22, (2S)-2-(4-{[4-(Trifluoromethyl)-1,3-oxazol-2-yl]amino}phenyl) propanamide]	49 ± 6	58 ± 5	–
C[C@H](C(=O)O)c1ccc(N(C)c2nc(C(F)(F)F)cs2)cc1 [Compound 9, (2S)-2-(4-{methyl[4-(trifluoromethyl)-1,3-thiazol-2-yl]amino}phenyl)propanoic acid]	40 ± 12	41 ± 7	–
C[C@H](C(=O)O)c1ccc(N(C)c2nc(C(F)(F)F)co2)cc1 [Compound 20, (2S)-2-(4-{Methyl[4-(trifluoromethyl)-1,3-oxazol-2-yl]amino}phenyl)propanoic acid]	44 ± 7	47 ± 8	–
CC(C)(C(=O)O)c1ccc(Nc2nc(C(F)(F)F)cs2)cc1 [Compound 2, 2-Methyl-2-(4-{[4-(trifluoromethyl)-1,3-thiazol-2-yl]amino}phenyl)propanoic acid]	42 ± 9	56 ± 10	–
C[C@H](C(=O)O)c1ccc(Nc2nc(C(F)(F)F)co2)cc1 [Compound 19, (2S)-2-(4-{[4-(Trifluoromethyl)-1,3-oxazol-2-yl]amino}phenyl)propanoic acid]	36 ± 11	44 ± 10	–
C[C@H](NC(=O)[C@@H](C)c1ccc(Nc2nc(C(F)(F)F)co2)cc1)C(N)=O [Compound 25, (2S)—N-[(1S)-2-Amino-1-methyl-2-oxoethyl]-2-(4-{[4-(trifluoromethyl)-1,3-oxazol-2-yl]amino}phenyl) propanamide]	39 ± 14	46 ± 12	–
CC(C)[C@H](NC(=O)[C@@H](C)c1ccc(Nc2nc(C(F)(F)F)cs2)cc1)C(=O)O [Compound 17, (2S)-3-Methyl-2-{[(2S)-2-(4-{[4-(trifluoromethyl)-1,3-thiazol-2-yl]amino}phenyl)propanoyl]amino}butanoic acid]	40 ± 12	39 ± 2	melting point: 99 to 101 °C
Cc1csc(Nc2ccc(C(C)C(=O)O)cc2)n1 (stereo not drawn) [Compound 4, 2-{4-[(4-Methyl-1,3-thiazol-2-yl)amino]phenyl}propanoic acid]	45 ± 10	–	inhibition at 0.01 µM [2, 4]: 46 ± 6%
C[C@H](C(=O)NS(=O)(=O)C(F)(F)F)c1ccc(Nc2nc(C(F)(F)F)cs2)cc1 [Compound 12]	–	–	CXCL1 (% inhibition at 10^−8 M) [1]: 30 ± 7%; CXCL8 (% inhibition), tested at 10^−8 M [2, 4]: 48 ± 13* %
C[C@H](C(=O)O)c1ccc(Nc2nc(C(F)(F)F)cs2)cc1 [Compound 3, (2S)-2-(4-{[4-(Trifluoromethyl)-1,3-thiazol-2-yl]amino}phenyl)propanoic acid]	58 ± 6	66 ± 11	–
C[C@H](C(=O)O)c1ccc(Nc2nc(C(C)(C)C)cs2)cc1 [Compound 7, (2S)-2-{4-[(4-tert-Butyl-1,3-thiazol-2-yl)amino]phenyl}propanoic acid]	45 ± 10	50 ± 8	–
C[C@H](C(N)=O)c1ccc(Nc2nc(C(F)(F)F)cs2)cc1 [Compound 13]	44 ± 9	47 ± 3	melting point: 204 to 205 °C
